How the values were obtained:
Human OX1 receptor [1] = molecular target: T1, Human OX1 receptor (Homo sapiens, UniProt O43613); test: [3H]-radioligand binding assay, human OX1 receptor membranes
T1 sequence (O43613 1-425): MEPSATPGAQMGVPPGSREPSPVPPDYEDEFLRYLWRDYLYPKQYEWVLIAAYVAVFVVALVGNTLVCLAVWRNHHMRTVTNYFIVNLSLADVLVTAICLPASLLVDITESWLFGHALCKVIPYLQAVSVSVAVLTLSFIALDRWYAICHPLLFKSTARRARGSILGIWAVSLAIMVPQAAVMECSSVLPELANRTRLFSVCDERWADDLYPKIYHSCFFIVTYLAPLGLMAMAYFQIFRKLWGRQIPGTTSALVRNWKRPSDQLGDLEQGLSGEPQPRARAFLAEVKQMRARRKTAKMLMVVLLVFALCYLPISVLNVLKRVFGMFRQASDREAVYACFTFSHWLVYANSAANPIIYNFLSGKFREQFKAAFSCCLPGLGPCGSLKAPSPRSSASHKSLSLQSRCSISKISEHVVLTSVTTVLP
Experimental: (§3) Human OX1 or OX2 receptor were cloned into Invitrogen's (ThermoFisher Scientific, UK) Bac-to-Bac Baculovirus Expression System. P0 baculovirus was generated by transfecting SF9 cells with bacmid DNA using Cellfectin® II transfection reagent (ThermoFisher Scientific, UK, Catalog number 10362-100). Following P0 generation P1 virus was then generated ready for large scale infection and membrane preparation. SF21 cells were grown in expression medium ESF921 (Expression Systems, USA, catalog number 96-001-01) supplemented with 10% heat-inactivated FBS and 1% Pen/Strep and were infected at a cell density of 2.5×10^6 cells/mL and a multiplicity of infection of 1.0 for both human OX1R and OX2R. Incubation was carried out at over 48 h in a shaking incubator set at 27° C. The cell culture was then centrifuged at 2,500 rcf for 10 min at 4° C. The pellets were resuspended in cold PBS supplemented with Roche's Complete EDTA-free protease inhibitor cocktail tablets (Roche Applied Sciences, catalog number 05056489001), 1 mM PMSF and 1 mM EDTA. The resuspended cell paste was then centrifuged at 3,273 rcf for 12 min at 4° C. The supernatant was discarded and the pellet frozen at −80° C. The cell pellet from a 4 L culture was resuspended in buffer containing 50 mM HEPES pH 7.5, 150 mM NaCl, 8 Roche EDTA-Free protease inhibitor cocktail tablets and 1 mM PMSF. The suspension was left stirring at rt for 1 h and then homogenised for 90 s at 9,500 rpm using a VDI 25 (VWR, USA) homogeniser. The cells were then lysed using a Microfluidiser processor M-110L Pneumatic (Microfluidics, USA) at 60 PSI and membranes collected by ultracentrifugation at 204.7 k×g for 1 h. The supernatant was discarded and the pellet was resuspended and homogenised in 90 s at 9,500 rpm in 50 mL (25 mL for each 2 L culture) of buffer containing 50 mM Hepes pH 7.5, 150 mM NaCl, 3 Roche EDTA-free protease inhibitor cocktail tablets and 1 mM PMSF. The resulting membranes were then stored at −80° C.
(§4) [^3H]-radioligand binding assay. After thawing, membrane homogenates were re-suspended in the binding buffer (8.5 mM HEPES, pH 7.4, 1.3 mM CaCl2, 1.2 mM MgSO4, 118 mM NaCl, 4.7 mM KCl, 4 mM NaHCO3, 1.2 mM KH2PO4, 11 mM glucose) to a final assay concentration of 6.4 μg (OX1) or 1.4 μg (OX2) protein per well. Saturation isotherms were determined by the addition of various concentrations (0-30 nM) of [^3H]-4-(2,6-difluoro-4-methoxybenzyl)-2-(5,6-dimethoxypyridin-3-yl)-2H-1,2,4-benzothiadiazin-3(4H)-one 1,1-dioxide (Christopher et al, MedChemComm., 2015, 6, 947-955) in a total reaction volume of 250 μL for 90 min at rt. At the end of the incubation, membranes were filtered onto a 96-well GF/B filter pre-incubated with 0.5% polyethylenimine, with a Tomtec cell harvester and washed 5 times with 0.5 mL distilled water. Non-specific binding (NSB) was measured in the presence of 3.33 μM [4-(5-chloro-1,3-benzoxazol-2-yl)-7-methyl-1,4-diazepan-1-yl][5-methyl-2-(2H-1,2,3-triazol-2-yl)phenyl]methanone (Wertz et al, Angew. Chem. Int. Ed., 2011, 50, 11511-11515). Radioactivity on the filter was counted (1 min) on a Microbeta radiometric plate counter (Perkin Elmer) after addition of 50 μL of scintillation fluid (LabLogic: Part #SG-BXX-14). […] IC50 values were derived from the inhibition curve and the equilibrium dissociation constant (Ki) values were calculated using the Cheng-Prusoff equation.

Human OX1 receptor [2] = molecular target: T1, Human OX1 receptor; test: IPone accumulation assay, CHO cells expressing human OX1 receptor; type: cell-based; conditions: antagonism of orexin A (EC80) induced inositol phosphate turnover, read-out: fpKb average OX1 (converted)
Experimental: (§1) Stable cell lines for the human OX1R and OX2R receptors were generated through the transfection of CHO cells using the transfection reagent Genejuice (Novagen number 70967) and cDNA coding for either the human OX1R or OX2R. Cells were cultured in Sigma Nutrient Mixture F-12 Ham media (catalog number N6658) supplemented with 10% heat-inactivated FBS. Forty-eight hours after transfection, cells were harvested and placed under geneticin selection by culturing in Sigma Nutrient Mixture F-12 Ham media supplemented with 10% heat-inactivated FBS and geneticin (ThermoFisher Catalog number: 10131035). Selection of the final stable clone for each receptor was made on the basis of receptor expression, assay signal to noise and robustness though increasing passage. Selected clones for the human OX1R and OX2R were then frozen down into liquid nitrogen using Cell Freezing Medium-DMSO (Sigma-Aldrich catalog number: C6164).
(§2) IPone accumulation assay. A CHO cell line stably expressing either human OX1 or OX2 receptor was used with the IPone HTRF assay kit (CisBio: Part #62IPAPEJ) to measure receptor activation. The assay was optimised to measure the ability (potency; fpKb) of antagonists to reduce agonist (orexin A)-induced inositol phosphate turnover. Briefly, cells were plated onto half area 96-well white walled plates at a density of 12,500 cells/well. Sixteen hours post-plating cell growth media was replaced with antagonist concentration-response curve diluted in stimulation buffer (supplied with the kit). Cells were incubated in a humidified incubator (37° C.) for 30 min before an EC80 challenge concentration (˜20 nM (OX1) and 40 nM (OX2)) of orexin A (Tocris catalogue number 1455). After 30 min stimulation in a humidified incubator (37° C.) the assay was terminated by the addition of detection mixture as per manufacturer's instructions. The concentration of compound which reduced orexin-A stimulated turnover of inositol phosphates by 50% (IC50) was calculated by fitting to a four parameter sigmoidal dose response curve. The IC50 values were converted to fpKB values using the orexin A pEC50 value estimated on each plate as well as the challenge concentration interpolated from the orexin A control curve.

Human OX2 receptor [3] = molecular target: T2, Human OX2 receptor (Homo sapiens, UniProt O43614); test: IPone accumulation assay, CHO cells expressing human OX2 receptor; type: cell-based; conditions: antagonism of orexin A (EC80) induced inositol phosphate turnover, read-out: fpKb average OX2
T2 sequence (O43614 1-444): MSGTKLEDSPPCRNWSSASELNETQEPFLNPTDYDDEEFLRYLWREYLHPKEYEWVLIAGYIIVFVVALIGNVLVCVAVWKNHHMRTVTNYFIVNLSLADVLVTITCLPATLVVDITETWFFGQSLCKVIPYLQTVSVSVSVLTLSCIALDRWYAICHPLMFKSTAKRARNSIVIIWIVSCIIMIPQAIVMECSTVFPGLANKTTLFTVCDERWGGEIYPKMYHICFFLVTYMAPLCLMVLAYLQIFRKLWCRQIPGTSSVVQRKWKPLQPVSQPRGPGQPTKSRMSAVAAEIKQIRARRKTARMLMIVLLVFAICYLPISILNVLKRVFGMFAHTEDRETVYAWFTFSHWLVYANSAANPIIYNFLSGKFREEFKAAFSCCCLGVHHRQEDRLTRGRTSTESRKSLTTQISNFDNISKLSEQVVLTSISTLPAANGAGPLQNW
Experimental: as §1
as §2, with “Cells were incubated in a humidified incubator (37° C.) for 30 min before an EC80 challenge concentration (˜20 nM (OX1) and 40 nM (OX2)) of orexin A (Tocris catalogue number 1455).” left out

Human OX2 receptor [4] = molecular target: T2, Human OX2 receptor; test: [3H]-radioligand binding assay, human OX2 receptor membranes
Experimental: as §3, §4

Compound | Ki (Human OX1 receptor [1]) [nM] | Kb (Human OX1 receptor [2]) [nM] | Kb (Human OX2 receptor [3]) [nM] | Ki (Human OX2 receptor [4]) [nM] | Kd (Human OX1 receptor [1]; read-out: KD value of the radioligand, OX1, saturation isotherms) [nM] | Kd (Human OX2 receptor [4]; read-out: KD value of the radioligand, OX2, saturation isotherms) [nM]
O=C(N[C@H]1CCC[C@@H]1COc1ccc(F)cc1)c1ccccc1-n1nccn1 [Example 1, N-[(1S,2S)-2-[(4-fluorophenoxy)methyl]cyclopentyl]-2-(triazol-2-yl)benzamide] | 10 | 126 | > 1580 | > 3160 | – | –
Cc1ccc(-c2ncccn2)c(C(=O)N[C@H]2CCC[C@@H]2COc2ccc(F)cc2)c1 [Example 2, N-[(1S,2S)-2-[(4-fluorophenoxy)methyl]cyclopentyl]-5-methyl-2-pyrimidin-2-yl-benzamide] | 5.01 | 63.1 | > 1260 | > 5010 | – | –
Cc1ccc(-n2nccn2)c(C(=O)N[C@H]2CCC[C@@H]2COc2ccc(F)cc2)c1 [Example 3, N-[(1S,2S)-2-[(4-fluorophenoxy)methyl]cyclopentyl]-5-methyl-2-(triazol-2-yl)benzamide] | 15.8 | – | – | > 1260 | – | –
O=C(N[C@H]1CCC[C@@H]1COc1ccc(F)cc1)c1c(OC(F)F)cccc1-n1nccn1 [Example 8, 2-(difluoromethoxy)-N-[(1S,2S)-2-[(4-fluorophenoxy)methyl]cyclopentyl]-6-(triazol-2-yl)benzamide] | 6.31 | 79.4 | > 398 | 631 | – | –
COc1cccc(-c2ncccn2)c1C(=O)N[C@H]1CCC[C@@H]1COc1ccc(F)cc1 [Example 9, N-[(1S,2S)-2-[(4-fluorophenoxy)methyl]cyclopentyl]-2-methoxy-6-pyrimidin-2-yl-benzamide] | 3.98 | 10 | – | – | – | –
O=C(N[C@H]1CCC[C@@H]1COc1ccc(F)cc1)c1c(F)cccc1-c1ncccn1 [Example 10, 2-fluoro-N-[(1S,2S)-2-[(4-fluorophenoxy)methyl]cyclopentyl]-6-pyrimidin-2-yl-benzamide] | 6.31 | 20 | > 631 | 1580 | – | –
COc1cccc(-c2cnccn2)c1C(=O)N[C@H]1CCC[C@@H]1COc1ccc(F)cc1 [Example 11, N-[(1S,2S)-2-[(4-fluorophenoxy)methyl]cyclopentyl]-2-methoxy-6-pyrazin-2-yl-benzamide] | 7.94 | 20 | > 631 | – | – | –
COc1cccc(-c2ncc(F)cn2)c1C(=O)N[C@H]1CCC[C@@H]1COc1ccc(F)cc1 [Example 13, N-[(1S,2S)-2-[(4-fluorophenoxy)methyl]cyclopentyl]-2-(5-fluoropyrimidin-2-yl)-6-methoxy-benzamide] | 12.6 | 31.6 | > 631 | 1580 | – | –
O=C(N[C@H]1CCC[C@@H]1COc1ccc(F)cc1)c1c(OC(F)F)cccc1-c1ncccn1 [Example 15, 2-(difluoromethoxy)-N-[(1S,2S)-2-[(4-fluorophenoxy)methyl]cyclopentyl]-6-pyrimidin-2-yl-benzamide] | 12.6 | 158 | > 2510 | > 1260 | – | –
COc1ccc(F)c(-n2nccn2)c1C(=O)N[C@H]1CCC[C@@H]1COc1ccc(F)cc1 [Example 16, 3-fluoro-N-[(1S,2S)-2-[(4-fluorophenoxy)methyl]cyclopentyl]-6-methoxy-2-(triazol-2-yl)benzamide] | 12.6 | 20 | > 631 | 1580 | – | –
COc1cccc(-n2nccn2)c1C(=O)N[C@H]1CCC[C@@H]1COc1ccc(F)cn1 [Example 31, N-[(1S,2S)-2-[(5-fluoro-2-pyridyl)oxymethyl]cyclopentyl]-2-methoxy-6-(triazol-2-yl)benzamide] | 6.31 | 10 | – | – | – | –
[2H]C([2H])([2H])Oc1cccc(-n2nccn2)c1C(=O)N[C@H]1CCC[C@@H]1COc1ccc(F)cn1 [Example 33, N-[(1S,2S)-2-[(5-fluoro-2-pyridyl)oxymethyl]cyclopentyl]-2-(triazol-2-yl)-6-(trideuteriomethoxy)benzamide] | 3.98 | 15.8 | – | – | – | –
COc1cc(F)c(CN2C(=O)N(c3cnc(OC)c(OC)c3)S(=O)(=O)c3ccccc32)c(F)c1 [[^3H]-4-(2,6-difluoro-4-methoxybenzyl)-2-(5,6-dimethoxypyridin-3-yl)-2H-1,2,4-benzothiadiazin-3(4H)-one 1,1-dioxide, reference compound] | – | – | – | – | 1.5 | 0.75

Continued, values first:

Ki (Human OX1 receptor [1]) [nM] | Kb (Human OX1 receptor [2]) [nM] | Kb (Human OX2 receptor [3]) [nM] | Ki (Human OX2 receptor [4]) [nM] | Kd (Human OX1 receptor [1]; read-out: KD value of the radioligand, OX1, saturation isotherms) [nM] | Kd (Human OX2 receptor [4]; read-out: KD value of the radioligand, OX2, saturation isotherms) [nM] | Compound
3.98 | 63.1 | > 2000 | > 3160 | – | – | O=C(N[C@H]1CCC[C@@H]1COc1ccc(F)cc1)c1c(F)cccc1-n1nccn1 [Example 4, 2-fluoro-N-[(1S,2S)-2-[(4-fluorophenoxy)methyl]cyclopentyl]-6-(triazol-2-yl)benzamide]
1.58 | 1.58 | > 501 | 200 | – | – | COc1cccc(-n2nccn2)c1C(=O)N[C@H]1CCC[C@@H]1COc1ccc(F)cc1 [Example 5, N-[(1S,2S)-2-[(4-fluorophenoxy)methyl]cyclopentyl]-2-methoxy-6-(triazol-2-yl)benzamide]
2.51 | 6.31 | > 794 | 200 | – | – | COc1cccc(-n2nccn2)c1C(=O)N[C@H]1CCC[C@@H]1COc1ccc(Cl)cc1 [Example 6, N-[(1S,2S)-2-[(4-chlorophenoxy)methyl]cyclopentyl]-2-methoxy-6-(triazol-2-yl)benzamide]
2.51 | 0.794 | > 794 | 158 | – | – | [2H]C([2H])(Oc1ccc(F)cc1)[C@H]1CCC[C@@H]1NC(=O)c1c(OC)cccc1-n1nccn1 [Example 7, N-[(1S,2S)-2-[dideuterio-(4-fluorophenoxy)methyl]cyclopentyl]-2-methoxy-6-(triazol-2-yl)benzamide]
3.16 | 12.6 | > 631 | 1000 | – | – | COc1cccc(-c2ccncn2)c1C(=O)N[C@H]1CCC[C@@H]1COc1ccc(F)cc1 [Example 12, N-[(1S,2S)-2-[(4-fluorophenoxy)methyl]cyclopentyl]-2-methoxy-6-pyrimidin-4-yl-benzamide]
1.26 | 1 | > 501 | 126 | – | – | [2H]C([2H])([2H])Oc1cccc(-n2nccn2)c1C(=O)N[C@H]1CCC[C@@H]1COc1ccc(F)cc1 [Example 14, N-[(1S,2S)-2-[(4-fluorophenoxy)methyl]cyclopentyl]-2-(triazol-2-yl)-6-(trideuteriomethoxy)benzamide]

From patent publication US12331029B2, “Orexin 1 receptor antagonists” (NXERA PHARMA UK LIMITED, priority 2018, dated 2025)
